Experiments:
Set-up in all cases: species or system AML cell lines (8); Primary HTS, single concentration about 10 uM, Cell Titer Glo viability; log10 luminescence, per cent inhibition relative to cycloheximide control
Conditions in all cases: 72 h, relative to cycloheximide control, log10 luminescence; inhibitor
CHRF288-11 = system: CHRF288-11
CMK = system: CMK
CMS = system: CMS
M07e = system: M07e
ML-2 = system: ML-2
MOLM-13 = system: MOLM-13
MV4-11 = system: MV4-11
U937 = system: U937

SMILES | CHRF288-11 %inh (CHRF288-11) | CMK %inh (CMK) | CMS %inh (CMS) | M07e %inh (M07e) | ML-2 %inh (ML-2) | MOLM-13 %inh (MOLM-13) | MV4-11 %inh (MV4-11) | U937 %inh (U937)
Nc1c(C(=O)c2cccc(-c3ccncc3)c2)cnn1-c1ccc(F)cc1F [SJ000581077-1] | 21.24% | 75.1% | 10.55% | 29.92% | 15.89% | 13.91% | 3.251% | 32.29%
Cn1cc(C2=C(c3cn(C)c4cc(Cl)ccc34)C(=O)NC2=O)c2ccccc21 [SJ000581078-1] | 127% | 127.5% | 103.6% | 100% | 61.36% | 85.69% | 84.42% | 87.46%
Cc1ccc2c(c1)c(C1=C(c3cn(C)c4ccccc34)C(=O)NC1=O)cn2C [SJ000581079-1] | 31.79% | 50.85% | 12.87% | 21.17% | 12.05% | 61.76% | 11.84% | 21.19%
Cn1cc(C2=C(c3c4n(c5ccccc35)CCNC4)C(=O)NC2=O)c2ccccc21 [SJ000581080-1] | 19.49% | 60.56% | 16.83% | 25.69% | 12.57% | 62.95% | 15.28% | 18.44%
COc1ccc(OC)c(C2=C(c3cn(C)c4ccccc34)C(=O)NC2=O)c1 [SJ000581081-1] | 7.567% | 3.003% | 0.8246% | 2.921% | -0.4206% | -2.282% | 1.033% | -0.9957%
COc1ccc2c(C3=C(c4cn(C)c5ccccc45)C(=O)NC3=O)cn(C)c2c1 [SJ000581082-1] | 125.3% | 107.7% | 102.2% | 103.9% | 51.13% | 81.86% | 77.51% | 79.84%
O=[N+]([O-])c1ccc2c(c1)C(c1ccccc1Cl)=Nc1cn[nH]c1N2 [SJ000581083-1] | -0.2746% | -5.045% | -0.274% | 4.12% | -0.08337% | -2.48% | 0.3353% | -1.165%
Cn1cc(C2=C(c3cn(C)c4c(N)cccc34)C(=O)NC2=O)c2ccccc21 [SJ000581084-1] | 31.5% | 34.34% | 26.64% | 30.04% | 31.97% | 57.26% | 35.68% | 30.59%
COC[C@H](N=C1NC(=O)/C(=C/c2ccc3ncccc3c2)S1)c1ccccc1 [SJ000581086-1] | 2.677% | 5.986% | 4.472% | 15.62% | 2.549% | -1.579% | -0.3199% | 4.246%
Fc1ccc(-c2c(-c3ccncc3)[nH]c3cccnc23)cc1 [SJ000581088-1] | 1.888% | -0.07997% | 0.767% | 3.19% | -1.446% | -2.723% | 0.5271% | 1.73%
N#CCn1c(=O)c(Oc2ccc(F)cc2F)cc2cnc(NC3CCOCC3)nc21 [SJ000581089-1] | 0.7869% | 1.27% | 1.167% | 5.15% | 0.2559% | 79.15% | 0.2945% | 0.6532%

Reference: publication PMC6522510 (Nature Communications, 2019)
